Data taken from US4442118A, “Aldose reductase inhibition by 1-(4-chlorobenzoyl)-5-methoxy-2-methyl-1H-indole-3-acetic acid” (Ayerst, McKenna & Harrison, Inc., priority 1981, dated 1984).

Biological target: lens aldose reductase (Bos taurus, UniProt P16116)
Assay: in vitro aldose reductase inhibition test (modified Hayman and Kinoshita procedure)
Type: biochemical, bovine
Experimental: In the present case the procedure of Hayman and Kinoshita is modified in that the final chromatography step is omitted in the preparation of the enzyme from bovine lens.
The following results were obtained when indomethacin was evaluated in the above in vitro test: […]

Question: With `COc1ccc2c(c1)c(CC(=O)O)c(C)n2C(=O)c1ccc(Cl)cc1` [Indomethacin, 1-(4-Chlorobenzoyl)-5-methoxy-2-methyl-1H-indole-3-acetic acid] as the compound, how does the “inhibitor of lens aldose reductase (in words)” value read?
Answer: potent inhibitor of lens aldose reductase
